{"source": "paper PMC8965344", "about": "(Frontiers in Microbiology, 2022)", "molecules": {"B1": {"name": "obiltoxaximab (antibody, chains of the INN, looked up, V domains shown)", "VH": "QVQLQQSGPELKKPGASVKVSCKDSGYAFSSSWMNWVRQAPGQGLEWIGRIYPGDGDTNYNGKFQGRVTITADKSSSTAYMELSSLRSEDTAVYFCARSGLLRYAMDYWGQGTLVTVSS", "VL": "DIQMTQSPSSLSASVGDRVTITCRASQDIRNYLNWYQQKPGKAVKLLIYYTSRLLPGVPSRFSGSGSGTDYSLTISSQEQEDIGTYFCQQGNTLPWTFGQGTKVEIR"}}, "key": {"human TLR2": {"molecular_target": "T1, human TLR2 (Homo sapiens, UniProt O60603+Q15399)", "T1 construct": "expressed in transfected cells; host or cells: HEK293-NF-κB-Luc cells (clone LP58), stably transfected", "T1 sequence (O60603 21-784)": "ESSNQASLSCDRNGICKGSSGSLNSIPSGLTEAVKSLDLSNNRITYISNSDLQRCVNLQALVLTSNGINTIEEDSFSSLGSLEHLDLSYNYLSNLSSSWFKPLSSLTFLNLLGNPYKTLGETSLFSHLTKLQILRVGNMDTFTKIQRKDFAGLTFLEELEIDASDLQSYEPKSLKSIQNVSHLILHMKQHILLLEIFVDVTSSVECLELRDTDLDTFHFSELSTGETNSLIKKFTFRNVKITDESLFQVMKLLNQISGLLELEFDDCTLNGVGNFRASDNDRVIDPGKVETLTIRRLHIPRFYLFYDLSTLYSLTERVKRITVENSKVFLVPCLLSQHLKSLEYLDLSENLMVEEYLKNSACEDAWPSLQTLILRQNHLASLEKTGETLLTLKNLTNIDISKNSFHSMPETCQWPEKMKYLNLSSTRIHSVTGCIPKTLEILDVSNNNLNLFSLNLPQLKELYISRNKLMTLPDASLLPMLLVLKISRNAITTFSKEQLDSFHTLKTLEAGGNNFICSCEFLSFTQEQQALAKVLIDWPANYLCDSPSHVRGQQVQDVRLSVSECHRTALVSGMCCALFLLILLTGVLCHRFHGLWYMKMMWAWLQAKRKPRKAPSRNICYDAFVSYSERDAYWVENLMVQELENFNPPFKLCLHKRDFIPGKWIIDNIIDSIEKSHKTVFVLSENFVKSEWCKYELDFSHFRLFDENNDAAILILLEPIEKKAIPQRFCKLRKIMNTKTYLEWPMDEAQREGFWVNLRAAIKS", "T1 sequence (Q15399 25-786)": "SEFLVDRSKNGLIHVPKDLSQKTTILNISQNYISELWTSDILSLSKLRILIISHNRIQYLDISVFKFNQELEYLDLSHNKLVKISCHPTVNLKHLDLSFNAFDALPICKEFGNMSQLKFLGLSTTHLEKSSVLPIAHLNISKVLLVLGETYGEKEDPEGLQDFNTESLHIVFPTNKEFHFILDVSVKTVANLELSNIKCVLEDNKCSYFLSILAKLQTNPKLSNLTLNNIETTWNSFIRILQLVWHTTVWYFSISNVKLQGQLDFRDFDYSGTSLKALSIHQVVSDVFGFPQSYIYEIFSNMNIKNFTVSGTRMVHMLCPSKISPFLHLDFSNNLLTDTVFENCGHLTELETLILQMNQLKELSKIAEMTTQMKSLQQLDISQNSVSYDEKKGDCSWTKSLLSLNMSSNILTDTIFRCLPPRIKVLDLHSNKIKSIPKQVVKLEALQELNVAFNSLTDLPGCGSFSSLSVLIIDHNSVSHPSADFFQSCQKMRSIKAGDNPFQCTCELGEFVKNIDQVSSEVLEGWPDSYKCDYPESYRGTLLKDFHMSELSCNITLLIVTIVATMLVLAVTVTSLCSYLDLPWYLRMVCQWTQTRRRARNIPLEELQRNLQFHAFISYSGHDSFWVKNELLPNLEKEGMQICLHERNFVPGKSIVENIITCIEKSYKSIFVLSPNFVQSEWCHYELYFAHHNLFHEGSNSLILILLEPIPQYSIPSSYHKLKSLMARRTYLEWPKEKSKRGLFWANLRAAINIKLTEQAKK", "assay": "cell-based"}, "[1]": {"tested_on": "B. anthracis (Ames strain)", "format": "in vivo, Bacillus anthracis", "conditions": "for survival rate: 17 days"}, "[2]": {"tested_on": "B. anthracis (Ames strain)", "format": "in vivo, Bacillus anthracis", "conditions": "13 days"}, "[3]": {"tested_on": "B. anthracis (Ames strain)", "set-up": "species or system Bacillus anthracis", "conditions": "in vivo"}, "B. anthracis": {"tested_on": "B. anthracis", "set-up": "species or system Bacillus anthracis", "conditions": "in vivo"}, "Streptococcus pneumoniae": {"tested_on": "Streptococcus pneumoniae", "conditions": "in vivo; cited from earlier work"}, "[4]": {"conditions": "in vivo; cited from earlier work"}, "S. aureus": {"tested_on": "S. aureus", "conditions": "in vivo; cited from earlier work"}, "PA": {"tested_on": "PA", "conditions": "cited from earlier work"}}, "note": "Like-named read-outs stand apart in the source and are kept apart here."}
{"molecule": "Pam2CSK4", "values": [{"measurement": "induction of NF-kB activity", "setting": "human TLR2", "value": "dose dependent induction of NF-kB activity"}, {"measurement": "survival rate", "setting": "[1]", "value": 20, "unit": "%"}, {"measurement": "induction of IFN-γ, TNF-α and IL-6 production", "setting": "human PBMCs", "value": "able to induce aforementioned cytokine productions with varying potency"}]}
{"molecule": "ODN1826", "values": [{"measurement": "survival rate", "setting": "[1]", "value": 0, "unit": "%"}]}
{"molecule": "O=C(O)c1cn(C2CC2)c2cc(N3CCNCC3)c(F)cc2c1=O", "note": "[ciprofloxacin]", "values": [{"measurement": "survival rate", "setting": "[2]", "value": 50, "unit": "%"}]}
{"molecule": "Pam3CSK4", "values": [{"measurement": "induction of NF-kB activity", "setting": "human TLR2", "value": "dose dependent induction of NF-kB activity"}, {"measurement": "survival rate", "setting": "[1]", "value": 60, "unit": "%"}, {"measurement": "protection of mice from lethal challenge of B. anthracis", "setting": "[1]; in vivo", "value": "the best at protecting mice from lethal challenge of B. anthracis"}, {"measurement": "survival rate", "setting": "[3]", "value": 40, "unit": "%"}, {"measurement": "survival rate after re-challenge", "setting": "B. anthracis", "value": 25, "unit": "%"}, {"measurement": "induction of IFN-γ, TNF-α and IL-6 production", "setting": "human PBMCs", "value": "able to induce aforementioned cytokine productions with varying potency"}]}
{"molecule": "MALP-2", "values": [{"measurement": "pulmonary bacterial burden in mice", "setting": "Streptococcus pneumoniae", "value": "reduced pulmonary bacterial burden in mice"}]}
{"molecule": "Poly (I:C)", "values": [{"measurement": "survival rate", "setting": "[1]", "value": 20, "unit": "%"}]}
{"molecule": "CCCCCCCCCCCCCCCC(=O)N[C@@H](CSC[C@@H](COC(=O)CCCCCCCCCCC)OC(=O)CCCCCCCCCCC)C(=O)N[C@@H](C)C(=O)N[C@H](CCC(=O)O)C(N)=O", "note": "[DA-98-WW07, (4R,7S,10R,14R)-4-carbamoyl-14-(dodecanoyloxy)-7-methyl-6,9,17-trioxo-10-palmitamido-16-oxa-12-thia-5,8-diazaoctacosanoic acid]", "values": [{"measurement": "EC50", "setting": "human TLR2", "value": "1040 ± 1160", "unit": "nM"}, {"measurement": "efficacy (% Eff), NF-κB-Luciferase", "setting": "human TLR2", "value": 101.36, "unit": "%"}]}
{"molecule": "CCc1nc2c(N)nc3ccccc3c2n1CCCCNS(C)(=O)=O", "note": "[PF4878691]", "values": [{"measurement": "adverse effects in patients", "setting": "[4]", "value": "flu-like symptoms, lymphopenia and hypotension"}]}
{"molecule": "Pam3Cys", "values": [{"measurement": "protection from S. aureus endophthalmitis", "setting": "S. aureus", "value": "protected mice from S. aureus endophthalmitis, preserved retinal structural integrity, and maintained visual function"}]}
{"molecule": "lipopolysaccharide [LPS]", "values": [{"measurement": "induction of NF-kB activity", "setting": "human TLR2", "value": "dose dependent induction of NF-kB activity"}, {"measurement": "induction of IFN-γ, TNF-α and IL-6 production", "setting": "human PBMCs", "value": "able to induce aforementioned cytokine productions with varying potency"}]}
{"molecule": "B1", "values": [{"measurement": "binding to PA and block of binding to anthrax toxin receptors", "setting": "PA", "value": "bind to PA and block its binding to anthrax toxin receptors"}]}
